Measured values published in patent US8445676B2, “Pyrrolotriazine kinase inhibitors” (Bristol-Myers Squibb Company, priority 2008, dated 2013).
Where two headings read alike, the source gives them in different places.

Legend:
Format in all cases: biochemical
JAK2 = JAK2 (Homo sapiens, UniProt O60674); test: JAK2 Tyrosine Kinase Assay
How it was run: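 Reaction of JAK2 with fluorescent substrate run 60 min at room temperature and stopped with EDTA. Substrate and phosphorylated product separated electrophoretically on a Caliper LabChip. Compounds tested at eleven concentrations in duplicate, with IC50 from non-linear regression.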

JAK3 [1] = biological target: T1, JAK3 (Homo sapiens, UniProt P52333); test: JAK3 Tyrosine Kinase Assay; settings: ATP 8 μM; JAK3 2.5 nM; 60 min room temperature
T1 sequence (P52333 1-1124): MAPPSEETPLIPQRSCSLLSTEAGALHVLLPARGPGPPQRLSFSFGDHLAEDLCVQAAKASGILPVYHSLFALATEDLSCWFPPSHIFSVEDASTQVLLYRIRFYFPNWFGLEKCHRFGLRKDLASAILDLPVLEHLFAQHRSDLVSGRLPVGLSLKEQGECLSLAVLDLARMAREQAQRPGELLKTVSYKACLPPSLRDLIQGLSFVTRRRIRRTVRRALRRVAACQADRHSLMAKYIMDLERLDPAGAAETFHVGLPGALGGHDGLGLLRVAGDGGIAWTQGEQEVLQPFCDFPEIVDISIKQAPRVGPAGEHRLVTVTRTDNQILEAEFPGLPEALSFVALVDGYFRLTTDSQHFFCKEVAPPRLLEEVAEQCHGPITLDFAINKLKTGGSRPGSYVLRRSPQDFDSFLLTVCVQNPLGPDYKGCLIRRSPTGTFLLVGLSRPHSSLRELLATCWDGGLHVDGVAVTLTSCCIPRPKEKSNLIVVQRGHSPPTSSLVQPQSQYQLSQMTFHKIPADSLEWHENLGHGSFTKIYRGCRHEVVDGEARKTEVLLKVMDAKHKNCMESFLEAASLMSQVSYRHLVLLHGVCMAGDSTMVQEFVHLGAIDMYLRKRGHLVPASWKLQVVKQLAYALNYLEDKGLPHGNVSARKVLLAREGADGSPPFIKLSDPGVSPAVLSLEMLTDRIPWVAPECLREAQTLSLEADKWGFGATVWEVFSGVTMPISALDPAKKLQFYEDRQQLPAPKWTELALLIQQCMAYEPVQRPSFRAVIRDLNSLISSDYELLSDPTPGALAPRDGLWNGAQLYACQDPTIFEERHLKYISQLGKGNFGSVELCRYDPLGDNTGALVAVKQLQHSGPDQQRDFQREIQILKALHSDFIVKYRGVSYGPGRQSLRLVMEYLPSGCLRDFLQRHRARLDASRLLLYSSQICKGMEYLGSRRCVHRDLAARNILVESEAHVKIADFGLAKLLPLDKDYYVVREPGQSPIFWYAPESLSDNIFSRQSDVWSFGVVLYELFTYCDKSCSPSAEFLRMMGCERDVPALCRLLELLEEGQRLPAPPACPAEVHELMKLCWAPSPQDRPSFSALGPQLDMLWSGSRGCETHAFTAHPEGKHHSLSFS
Procedure: JAK3 Tyrosine Kinase Assay
The assays were performed in V-bottom 384-well plates. […] The reaction was initiated by the combination of JAK3 with substrates and test compounds. The reaction was incubated at room temperature for 60 min. and terminated by adding 45 μl of 35 mM EDTA to each sample. The reaction mixture was analyzed on the Caliper LabChip 3000 by electrophoretic separation of the fluorescent substrate and phosphorylated product. […] The final concentration of reagents in the assays is ATP, 8 μM; JAK3 fluorescent peptide, 1.5 μM; JAK3, 2.5 nM; and DMSO, 1.6%. […] Compounds were dissolved at 10 mM in dimethylsulfoxide (DMSO) and evaluated at eleven concentrations, each in duplicate. IC50 values were derived by non-linear regression analysis.

JAK3 [2] = biological target: T1, JAK3; test: JAK3 Tyrosine Kinase Assay; settings: prior-art compound, stated in the background; read-out: IC50 against JAK3
[3] = ATP 30 μM, JAK2 1 nM, 60 min room temperature, read-out: Jak2(IC50)

JAK2, sequence (O60674 whole entry): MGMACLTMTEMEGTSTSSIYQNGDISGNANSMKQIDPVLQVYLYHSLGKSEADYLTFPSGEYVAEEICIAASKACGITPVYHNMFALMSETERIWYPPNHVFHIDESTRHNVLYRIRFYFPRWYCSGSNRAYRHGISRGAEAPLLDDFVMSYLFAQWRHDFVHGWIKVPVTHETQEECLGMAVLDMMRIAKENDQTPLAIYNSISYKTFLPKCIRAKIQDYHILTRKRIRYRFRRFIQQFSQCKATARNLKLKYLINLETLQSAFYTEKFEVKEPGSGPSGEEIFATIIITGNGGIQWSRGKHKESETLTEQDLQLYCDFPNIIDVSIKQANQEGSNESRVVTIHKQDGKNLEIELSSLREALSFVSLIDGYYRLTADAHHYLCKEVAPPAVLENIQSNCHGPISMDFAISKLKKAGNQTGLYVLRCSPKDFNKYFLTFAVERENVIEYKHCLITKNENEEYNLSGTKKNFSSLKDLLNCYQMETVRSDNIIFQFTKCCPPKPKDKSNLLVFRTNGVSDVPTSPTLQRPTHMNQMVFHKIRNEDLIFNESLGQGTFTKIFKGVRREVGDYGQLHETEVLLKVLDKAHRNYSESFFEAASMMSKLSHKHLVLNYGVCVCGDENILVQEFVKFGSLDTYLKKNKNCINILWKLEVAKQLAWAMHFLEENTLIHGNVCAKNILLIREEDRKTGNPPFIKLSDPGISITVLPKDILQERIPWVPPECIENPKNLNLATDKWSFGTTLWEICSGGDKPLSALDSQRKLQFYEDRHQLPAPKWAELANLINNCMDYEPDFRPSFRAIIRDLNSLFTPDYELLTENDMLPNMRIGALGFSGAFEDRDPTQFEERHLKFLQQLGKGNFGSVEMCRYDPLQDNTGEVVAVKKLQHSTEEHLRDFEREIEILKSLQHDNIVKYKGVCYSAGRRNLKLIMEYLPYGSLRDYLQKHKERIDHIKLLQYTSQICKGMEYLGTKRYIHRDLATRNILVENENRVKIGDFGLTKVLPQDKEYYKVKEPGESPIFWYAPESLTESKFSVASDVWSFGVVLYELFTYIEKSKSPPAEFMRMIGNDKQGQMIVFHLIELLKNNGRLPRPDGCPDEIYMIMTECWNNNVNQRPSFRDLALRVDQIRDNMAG

IC50 (JAK2; [3]) [nM]	IC50 (JAK3 [1]) [nM]	IC50 (JAK2; prior-art compound, stated in the background, read-out: IC50 against JAK2) [nM]	IC50 (JAK3 [2]) [nM]	SMILES
0.898	10	–	–	Cc1cc(Nc2nc(N3CCN(C(=O)c4cccc(C#N)c4)CC3)nn3cccc23)n[nH]1 [Example 66, 3-((4-(4-((5-methyl-1H-pyrazol-3-yl)amino)pyrrolo[2,1-f][1,2,4]triazin-2-yl)-1-piperazinyl)carbonyl)benzonitrile]
130	3050	–	–	Cc1cc(Nc2nc(N3CCN(C(=O)c4ccccc4S(C)(=O)=O)CC3)nn3cccc23)n[nH]1 [Example 193, N-(5-methyl-1H-pyrazol-3-yl)-2-(4-(2-(methylsulfonyl)benzoyl)-1-piperazinyl)pyrrolo[2,1-f][1,2,4]triazin-4-amine]

Continued, compound first:

SMILES	IC50 (JAK2; [3]) [nM]	IC50 (JAK3 [1]) [nM]	IC50 (JAK2; prior-art compound, stated in the background, read-out: IC50 against JAK2) [nM]	IC50 (JAK3 [2]) [nM]
Cc1cc(Nc2nc(N3CCN(C(=O)C(C)(C)NC(=O)OC(C)(C)C)CC3)nn3cccc23)n[nH]1 [Example 150, tert-butyl (1,1-dimethyl-2-(4-(4-((5-methyl-1H-pyrazol-3-yl)amino)pyrrolo[2,1-f][1,2,4]triazin-2-yl)-1-piperazinyl)-2-oxoethyl)carbamate]	700	13700	–	–
Cc1cnc(C(=O)N2CCN(c3nc(Nc4cc(C)[nH]n4)c4cccn4n3)CC2)cn1 [Example 32, 2-(4-((5-methyl-2-pyrazinyl)carbonyl)-1-piperazinyl)-N-(5-methyl-1H-pyrazol-3-yl)pyrrolo[2,1-f] [1,2,4]triazin-4-amine]	7.16	120	–	–
Cc1cc(Nc2nc(N3CCNCC3)nn3cccc23)[nH]n1 [Example 74 of the publication, reference compound]	–	–	31	460
